Experimental data from patent US10138253B2, “Imidazopyridine macrocycles as inhibitors of human immunodeficiency virus replication” (priority 2015, dated 2018).
Read-outs that look alike come from different tables or passages of the source.

Tests used:
[1] = from COC(=O)[C@@H](OC(C)(C)C)c1c(C)c(C)c2nc(-c3cccc(-c4c(O)cc(C)cc4F)c3)cn2c1N1CCC(C)(OCCOC[C@@H](C)O)CC1; ether bond; 20-membered ring; PPh3/DIAD; THF; 6.7 mM; 1.0 h; 2 steps
[2] = from COC(=O)[C@@H](OC(C)(C)C)c1c(C)c(C)c2nc(-c3cccc(-c4c(O)cc(C)cc4F)c3)cn2c1N1CCC(C)(OCCOC[C@@H](C)O)CC1; ether bond; PPh3/DIAD; THF; 6.7 mM; 1.0 h; 2 steps
[3] = system: NL-RLuc virus; assay: Inhibition of HIV replication (NL-RLuc virus, luciferase readout, MT-2 cells); type: cell-based; details: Human immunodeficiency virus 1, MT2, 120 h
Source text: Inhibition of HIV Replication:
A recombinant NL-RLuc proviral clone was constructed in which a section of the nef gene from NL4-3 was replaced with the Renilla Luciferase gene. This virus is fully infectious and can undergo multiple cycles of replication in cell culture. In addition, the luciferous reporter provides a simple and easy method for quantitating the extent of virus growth and consequently, the antiviral activity of test compounds. The plasmid pNLRLuc contains the proviral NL-Rluc DNA cloned into pUC18 at the PvuII site. The NL-RLuc virus was prepared by transfection of 293T cells with the plasmid pNLRLuc. Transfections were performed using the LipofectAMINE PLUS kit from Invitrogen (Carlsbad, Calif.) according to the manufacturer and the virus generated was titered in MT-2 cells. For susceptibility analyses, the titrated virus was used to infect MT-2 cells in the presence of compound, and after 5 days of incubation, cells were processed and quantitated for virus growth by the amount of expressed luciferase. Assay media was RPMI 1640 supplemented with 10% heat inactivated fetal bovine serum (FBS), 100 units/ml penicillin G/100 units/ml streptomycin, 10 mM HEPES buffer pH 7.55 and 2 mM L-glutamine. The results from at least 2 experiments were used to calculate the EC50 values. Luciferase was quantitated using the Dual Luciferase kit from Promega (Madison, Wis.). Susceptibility of viruses to compounds was determined by incubation in the presence of serial dilutions of the compound. The 50% effective concentration (EC50) was calculated by using the exponential form of the median effect equation where (Fa)=1/[1+(ED50/drug conc.)^m] (Johnson V A, Byington R T. Infectivity Assay. In Techniques in HIV Research. ed. Aldovini A, Walker B D. 71-76. New York: Stockton Press. 1990). Activity equal to A refers to a compound having an EC50≤100 nM, while B and C denote compounds having an EC50 between 100 nM and luM (B) or >1 uM (C).

| Structure (SMILES) | EC50 ([3]; read-out: Activity) | also measured |
| --- | --- | --- |
| COC(=O)[C@@H](OC(C)(C)C)c1c(C)c(C)c2nc3cn2c1N1CCC(C)(CC1)OCCOC[C@H](C)Oc1cc(C)cc(F)c1-c1cccc-3c1 |  | ring closure, isolated yield [1]: 81%; ring closure, yield of all isomers [2]: 81% |
| Cc1c([C@H](OC(C)(C)C)C(=O)O)c2n3c(Cl)c(nc3c1Cn1nccn1)-c1cccc(c1)-c1cc(F)c(F)cc1O[C@@H](C)COCCOC1(C)CCN2CC1 [Example 13, (2S)-2-(tert-butoxy)-2-[(22S)-8-chloro-17,18-difluoro-4,22,28-trimethyl-5-(2H-1,2,3-triazol-2-ylmethyl)-21,24,27-trioxa-1,7,34-triazahexacyclo[26.2.2.1^6,^9.1^1^0,^1^4.0^2,^7.0^1^5,^2^0]tetratriaconta-2,4,6(34),8,10(33),11,13,15(20),16,18-decaen-3-yl]acetic Acid] | < 0.1 µM |  |
| C=C(C)c1c(C)c([C@H](OC(C)(C)C)C(=O)O)c2n3cc(nc13)-c1cccc(c1)-c1cc(F)c(F)cc1O[C@@H](C)COCCOC1(C)CCN2CC1 [Example 14, (2S)-2-(tert-Butoxy)-2-[(22S)-17,18-difluoro-4,22,28-trimethyl-5-(prop-1-en-2-yl)-21,24,27-trioxa-1,7,34-triazahexacyclo[26.2.2.1^6,^9.1^1^0,^1^4.0^2,^7.0^1^5,^2^0]tetratriaconta-2,4,6(34),8,10(33),11,13,15(20),16,18-decaen-3-yl]acetic Acid] | < 0.1 µM |  |
| Cc1c([C@H](OC(C)(C)C)C(=O)O)c2n3c(C)c(nc3c1C)-c1cccc(c1)-c1cc(F)c(F)cc1O[C@@H](C)COCCOC1(C)CCN2CC1 [Example 15, (2S)-2-(tert-Butoxy)-2-[(22S)-17,18-difluoro-4,5,8,22,28-pentamethyl-21,24,27-trioxa-1,7,34-triazahexacyclo[26.2.2.1^6,^9.1^1^0,^1^4.0^2,^7.0^1^5,^2^0]tetratriaconta-2,4,6(34),8,10(33),11,13,15(20),16,18-decaen-3-yl]acetic Acid] | < 0.1 µM |  |
| Cc1c([C@H](OC(C)(C)C)C(=O)O)c2n3cc(nc3c1C#N)-c1cccc(c1)-c1cc(F)c(F)cc1O[C@@H](C)COCCOC1(C)CCN2CC1 [Example 17, (2S)-2-(tert-Butoxy)-2-[(22S)-5-cyano-17,18-difluoro-4,22,28-trimethyl-21,24,27-trioxa-1,7,34-triazahexacyclo[26.2.2.1^6,^9.1^1^0,^1^4.0^2,^7.0^1^5,^2^0]tetratriaconta-2,4,6(34),8,10(33),11,13,15(20),16,18-decaen3-yl]acetic Acid] | < 0.1 µM |  |
| Cc1cc(F)c2c(c1)O[C@@H](C)COCCOC1(C)CCN(CC1)c1c([C@H](OC(C)(C)C)C(=O)O)c(C)cc3nc(cn13)-c1cccc-2c1 [Example 18, (2S)-2-(tert-Butoxy)-2-[(22S)-16-fluoro-4,18,22,28-tetramethyl-21,24,27-trioxa-1,7,34-triazahexacyclo[26.2.2.1^6,^9.1^1^0,^1^4.0^2,^7.0^1^5,^2^0]tetratriaconta-2,4,6(34),8,10(33),11,13,15(20),16,18-decaen-3-yl]acetic Acid] | < 0.1 µM |  |
| Cc1cc(F)c2c(c1)O[C@@H](C)COCCOC1(C)CCN(CC1)c1c([C@H](OC(C)(C)C)C(=O)O)c(C)c(C)c3nc(cn13)-c1cccc-2c1 [Example 19, (2S)-2-(tert-Butoxy)-2-((6S,Z)-46-fluoro-14,27,28,44,6-pentamethyl-5,8,11-trioxa-2(5,2)-imidazo[1,2-a]pyridina-1(1,4)-piperidina-3(1,3),4(1,2)-dibenzenacycloundecaphane-26-yl)acetic Acid] | < 0.1 µM |  |
| Cc1cc(F)c2c(c1)O[C@@H](C)COCCOC1(C)CCN(CC1)c1c([C@H](OC(C)(C)C)C(=O)O)c(C)c(C)c3nc(c(Cl)n13)-c1cccc-2c1 [Example 21, (2S)-2-(tert-Butoxy)-2-((6S,E)-23-chloro-46-fluoro-14,27,28,44,6-pentamethyl-5,8,11-trioxa-2(5,2)-imidazo[1,2-a]pyridina-1(1,4)-piperidina-3(1,3),4(1,2)-dibenzenacycloundecaphane-26-yl)acetic acid] | < 0.1 µM | EC50 ([3]; read-out: EC50 μM): 0.002 µM |
| Cc1ccc2c(c1)O[C@@H](C)COCCOC1(C)CCN(CC1)c1c([C@H](OC(C)(C)C)C(=O)O)c(C)cc3nc(cn13)-c1cccc-2c1 [Example 22, (2S)-2-(tert-Butoxy)-2-[(22S)-4,18,22,28-tetramethyl-21,24,27-trioxa-1,7,34-triazahexacyclo[26.2.2.1^6,^9.1^1^0,^1^4.0^2,^7.0^1^5,^2^0]tetratriaconta-2,4,6(34),8,10(33),11,13,15(20),16,18-decaen-3-yl]acetic Acid] | < 0.1 µM |  |
| Cc1ccc2c(c1)O[C@@H](C)COCCOC1(C)CCN(CC1)c1c([C@H](OC(C)(C)C)C(=O)O)c(C)c(C)c3nc(cn13)-c1cccc-2c1 [Example 23, (2S)-2-(tert-Butoxy)-2-((6S,Z)-14,27,28,44,6-pentamethyl-5,8,11-trioxa-2(5,2)-imidazo[1,2-a]pyridina-1(1,4)-piperidina-3(1,3),4(1,2)-dibenzenacycloundecaphane-26-yl)acetic Acid] | < 0.1 µM |  |
| Cc1ccc2c(c1)O[C@@H](C)COCCOC1(C)CCN(CC1)c1c([C@H](OC(C)(C)C)C(=O)O)c(C)c(C)c3nc(c(Cl)n13)-c1cccc-2c1 [Example 24, (2S)-2-(tert-Butoxy)-2-((6S,E)-23-chloro-14,27,28,44,6-pentamethyl-5,8,11-trioxa-2(5,2)-imidazo[1,2-a]pyridina-1(1,4)-piperidina-3(1,3),4(1,2)-dibenzenacycloundecaphane-26-yl)acetic Acid] | < 0.1 µM |  |
| Cc1ccc2c(c1)-c1cccc(c1)-c1cn3c(c([C@H](OC(C)(C)C)C(=O)O)c(C)cc3n1)N1CCC(C)(CC1)OCCOC[C@H](C)O2 [Example 25, (2S)-2-(tert-Butoxy)-2-[(22S)-4,17,22,28-tetramethyl-21,24,27-trioxa-1,7,34-triazahexacyclo[26.2.2.1^6,^9.1^1^0,^1^4.0^2,^7.0^1^5,^2^0]tetratriaconta-2,4,6(34),8,10(33),11,13,15(20),16,18-decaen-3-yl]acetic acid] | < 0.1 µM | EC50 ([3]; read-out: EC50 μM): 0.002 µM |
| Cc1ccc2c(c1)-c1cccc(c1)-c1cn3c(c([C@H](OC(C)(C)C)C(=O)O)c(C)c(C)c3n1)N1CCC(C)(CC1)OCCOC[C@H](C)O2 [Example 26, (2S)-2-(tert-Butoxy)-2-[(22S)-4,5,17,22,28-pentamethyl-21,24,27-trioxa-1,7,34-triazahexacyclo[26.2.2.1^6,^9.1^1^0,^1^4.0^2,^7.0^1^5,^2^0]tetratriaconta-2,4,6(34),8,10(33),11,13,15(20),16,18-decaen-3-yl]acetic Acid] | < 0.1 µM |  |
| Cc1ccc2c(c1)-c1cccc(c1)-c1nc3c(C)c(C)c([C@H](OC(C)(C)C)C(=O)O)c(n3c1Cl)N1CCC(C)(CC1)OCCOC[C@H](C)O2 [Example 27, (2S)-2-(tert-Butoxy)-2-[(22S)-8-chloro-4,5,17,22,28-pentamethyl-21,24,27-trioxa-1,7,34-triazahexacyclo[26.2.2.1^6,^9.1^1^0,^1^4.0^2,^7.0^1^5,^2^0]tetratriaconta-2,4,6(34),8,10(33),11,13,15(20),16,18-decaen-3-yl]acetic Acid] | < 0.1 µM |  |
| Cc1c([C@H](OC(C)(C)C)C(=O)O)c2n3cc(nc3c1C)-c1cccc(c1)-c1cc(F)ccc1O[C@@H](C)COCCOC1(C)CCN2CC1 [Example 28, (2S)-2-(tert-Butoxy)-2-((6S,Z)-45-fluoro-14,27,28,6-tetramethyl-5,8,11-trioxa-2(5,2)-imidazo[1,2-a]pyridina-1(1,4)-piperidina-3(1,3),4(1,2)-dibenzenacycloundecaphane-26-yl)acetic Acid] | < 0.1 µM |  |
| Cc1c([C@H](OC(C)(C)C)C(=O)O)c2n3c(Cl)c(nc3c1C)-c1cccc(c1)-c1cc(F)ccc1O[C@@H](C)COCCOC1(C)CCN2CC1 [Example 29, (2S)-2-(tert-butoxy)-2-((6S,E)-23-chloro-45-fluoro-14,27,28,6-tetramethyl-5,8,11-trioxa-2(5,2)-imidazo[1,2-a]pyridina-1(1,4)-piperidina-3(1,3),4(1,2)-dibenzenacycloundecaphane-26-yl)acetic Acid] | < 0.1 µM | EC50 ([3]; read-out: EC50 μM): 0.001 µM |
